Results as given in patent publication US20250136574A1, “SELECTIVE AGENTS TARGETING MYCOBACTERIUM TUBERCULOSIS” (priority 2022, published 2025).
Like-named read-outs stand apart in the source and are kept apart here. Marks after values point to notes of the source that are not given here.

How the values were obtained:
[1] = tested on: wild-type (WT) Mtb; format: cell-based, Mycobacterium tuberculosis
[2] = tested on: wild-type (WT) Mtb Erdman strain; experiment: MABA, Mtb Erdman strain; format: cell-based; details: Mycobacterium tuberculosis
[3] = CC50 cytotoxicity, Promega CellTiter-Glo Luminescent Cell Viability Assay; format: cell-based, African green monkey; details: African green monkey, Vero cells; 72-hour incubation, CellTiter-Glo, n = 3
Description: (§1) Cytotoxicity assays were conducted to measure toxicity of compounds at single concentration in Vero TMPRSS2 cells by using quantitation of ATP to indicate metabolically active cells. Vero cells (derived from African Green Monkey kidney epithelial tissue) were grown in Dulbecco's Modified Eagle Medium (DMEM) supplemented with 10% fetal bovine serum (FBS), 10 mM HEPES buffered saline, and 2 mM L-glutamine. 5,000 cells per well were seeded into a 96-well plate containing two-fold titrations of compounds. The concentration of DMSO was maintained at 0.5% for all wells to avoid toxicity. The plates were incubated for 72 hours, at which point they were acclimatized to room temperature for 30 minutes. 25 μL of the substrate/buffer solution from the Promega CellTiter-Glo Luminescent Cell Viability Assay kit was added to each well. The plates were shaken at a low orbital speed for 3 minutes and let rest at room temperature for 10 minutes, after which luminescence was measured using a BioTek Synergy H1 Microplate Reader H1M. The positive control was defined as wells containing cells without compounds.
(§2) Percent viability was input into PRISM GraphPad to calculate CC50 values by plotting as a non-linear regression curve.
(§3) Given the toxicity of an initial hit compound in mammalian cells and the potential concern for toxicity more generally with nitro-containing drugs, the selected compounds were also examined for toxicity in a mammalian cell line using Promega's Cell Titer-Glo assay to assess cellular ATP levels as a read-out of viability. […] A selectivity index (SI) was then calculated for each compound by determining the ratio of the CC50 in Vero cells to the MABA IC50 in Mtb, where the larger the SI, the safer the compound is in eukaryotic cells relative to its effective dose. […] Therefore, not only were the SAR efforts successful in identifying compounds with increased potency against Mtb, but also, the toxicity concerns of the original hit compound were overcome.

[4] = tested on: Vero cells; experiment: as above; format: cell-based, African green monkey; details: for selectivity index (SI): ratio of CC50 in Vero cells to MABA IC50 in Mtb; for CC50: 72-hour incubation, CellTiter-Glo, n = 3
Description: as §1, §2, §3

[5] = PBS solubility; details: highest concentration with no detectable precipitate; phosphate-buffered saline
[6] = Plasma stability, human; details: n = 1
[7] = Plasma stability, mouse; details: n = 1
[8] = Liver microsomal stability, human; details: human liver microsomes, n = 1
[9] = Liver microsomal stability, mouse; details: mouse liver microsomes, n = 1
[10] = tested on: wild-type (WT) Mtb HN878 strain; experiment: MABA, Mtb HN878 strain; format: cell-based; details: Mycobacterium tuberculosis; read-out: IC50 ± S.D. (μM) HN878
[11] = read-out: IC50 S.D. (μM) Mtb Erdman strain
[12] = read-out: IC50 ± S.D. (μM) Erdman

SMILES: CCCCCCC#Cc1cncc(-c2nnc(SCc3ccc(Cl)cc3[N+](=O)[O-])n2C)c1
- IC50 [1]: > 200 µM

SMILES: CCCCCCC#Cc1cncc(-c2nnc(SCc3cc([N+](=O)[O-])cc(C(F)(F)F)c3)n2C)c1
- IC50 [1]: > 200 µM

SMILES: CCCCCCC#Cc1cncc(-c2nnc(Sc3ccc([N+](=O)[O-])c4nonc34)n2C)c1
- IC50 [1]: 27 µM

SMILES: CCCCCCC#Cc1cncc(-c2nnc(SCc3ccc4nonc4c3)n2C)c1
- IC50 [1]: > 200 µM

SMILES: CCCCCCC#Cc1cncc(-c2nnc(SCc3ccc(Cl)cc3)n2CC)c1
- IC50 [1]: 4.7 µM

SMILES: CCCCCCC#Cc1cncc(-c2nnc(SCc3ccc(Cl)cc3)n2CCCC)c1
- IC50 [1]: > 200 µM

SMILES: CCCCCCC#Cc1cncc(-c2nnc(SCc3ccc(Cl)cc3)n2-c2ccccc2)c1
- IC50 [1]: > 200 µM

SMILES: CCCCCCC#Cc1cncc(-c2nnc(SCc3ccc(Cl)cc3)n2Cc2ccccc2)c1
- IC50 [1]: > 200 µM

SMILES: Cn1c(SCc2ccc(Cl)cc2)nnc1-c1cccnc1
- IC50 [1]: > 200 µM

SMILES: Cn1c(SCc2ccc(Cl)cc2)nnc1-c1cncc(Br)c1
- IC50 [1]: > 200 µM

SMILES: CCCC#Cc1cncc(-c2nnc(SCc3ccc(Cl)cc3)n2C)c1
- IC50 [1]: 15 µM

SMILES: CCCCCCC#Cc1ccc(-c2nnc(SCc3ccc(Cl)cc3)n2C)cn1
- IC50 [1]: > 200 µM

SMILES: CCCCCCC#Cc1cncc(-c2nnc(SCc3ccc(Cl)c(F)c3)[nH]2)c1
- IC50 [2, 11]: 5.4 ± 0.03 µM
- CC50 at 72 hour [3]: > 125 µM
- selectivity index (SI) [4]: >23

SMILES: CCCCCCC#Cc1cncc(-c2nnc(SCc3ccc([N+](=O)[O-])cc3[N+](=O)[O-])n2C)c1
- IC50 [2, 11]: 1.1 ± 0.1 µM
- CC50 at 72 hour [3]: 28 ± 1 µM
- selectivity index (SI) [4]: 27

SMILES: CCCCCCC#Cc1cncc(-c2nnc(SCc3cc([N+](=O)[O-])cc([N+](=O)[O-])c3)n2C2CC2)c1.Cl
- PBS solubility [5]: 3.1 µM
- plasma stability t1/2 (min), human [6]: >480; >480 min
- plasma stability t1/2 (min), mouse [7]: >480; >480 min
- liver microsomal stability t1/2 (min), human [8]: 3.0 min
- liver microsomal stability t1/2 (min), mouse [9]: 5.9 min

SMILES: CCCCCCC#Cc1cncc(-c2nnc(SCc3cc([N+](=O)[O-])cc([N+](=O)[O-])c3)n2C)c1 [3,5-dinitrobenzyl analog]
- antimycobacterial activity ([1]; text b333, MABA): 0.5 µM

SMILES: NNC(=O)c1ccncc1 [INH, isoniazid, reference compound]
- IC50 [2, 12]: 0.18 ± 0.014 µM
- IC50 [10]: 0.12 ± 0.00051 µM

SMILES: CCCCCCC#Cc1cncc(-c2nnc(SCc3ccc(Cl)cc3)n2C)c1 [drawing 51]
- IC50 [1]: 5.3 µM

SMILES: CCCCCCC#Cc1cncc(-c2nnc(SCc3ccc(Cl)c(F)c3)n2C)c1 [drawing 52]
- IC50 [1]: 4.1 µM

SMILES: CCCCCCC#Cc1cncc(-c2nnc(SCc3ccc(Br)cc3)n2C)c1 [drawing 55 R = Br]
- IC50 [1]: 4.6 µM

SMILES: CCCCCCC#Cc1cncc(-c2nnc(SCc3ccc(C(F)(F)F)cc3)n2C)c1 [drawing 55 R = CF3]
- IC50 [1]: 44 µM

SMILES: CCCCCCC#Cc1cncc(-c2nnc(SCc3ccc(C#N)cc3)n2C)c1 [drawing 55 R = CN]
- IC50 [1]: 8.9 µM

SMILES: CCCCCCC#Cc1cncc(-c2nnc(SCc3ccc(F)cc3)n2C)c1 [drawing 55 R = F]
- IC50 [1]: 6.9 µM

SMILES: CCCCCCC#Cc1cncc(-c2nnc(SCc3ccc(OC)cc3)n2C)c1 [drawing 55 R = MeO]
- IC50 [1]: 8.7 µM

SMILES: CCCCCCC#Cc1cncc(-c2nnc(SCc3ccc(C)cc3)n2C)c1 [drawing 55 R = Me]
- IC50 [1]: 6.1 µM

SMILES: CCCCCCC#Cc1cncc(-c2nnc(SCc3ccc([N+](=O)[O-])cc3)n2C)c1 [drawing 55 R = NO2]
- IC50 [1]: 5.9 µM

SMILES: CCCCCCC#Cc1cncc(-c2nnc(SCc3ccc(-c4ccccc4)cc3)n2C)c1 [drawing 55 R = Ph]
- IC50 [1]: 197 µM

SMILES: CCCCCCC#Cc1cncc(-c2nnc(SCCn3c([N+](=O)[O-])cnc3C)n2C)c1 [drawing 58]
- IC50 [1]: 22 µM

SMILES: CCCCCCC#Cc1cncc(-c2nnc(SCc3ccc([N+](=O)[O-])o3)n2C)c1 [drawing 61]
- IC50 [1]: 0.55 µM

SMILES: CCCCCCC#Cc1cncc(-c2nnc(SCc3cccc(Cl)c3)n2C)c1 [drawing 64 R = Cl]
- IC50 [1]: 15 µM

SMILES: CCCCCCC#Cc1cncc(-c2nnc(SCc3ccc(Cl)c(Cl)c3)n2C)c1 [drawing 67]
- IC50 [1]: 6.8 µM

SMILES: CCCCCCC#Cc1cncc(-c2nnc(SCc3cc(F)cc(F)c3)n2C)c1 [drawing 69]
- IC50 [1]: 8 µM

SMILES: CCCCCCC#Cc1cncc(-c2nnc(SCc3ccc(Cl)cc3)n2C2CC2)c1 [drawing 77]
- IC50 [1]: 3.3 µM

SMILES: CCCCCCC#Cc1cncc(-c2nnc(SCc3ccc([N+](=O)[O-])o3)n2C2CC2)c1 [drawing 80]
- IC50 [1]: < 0.78 µM

SMILES: CCCCCCC#Cc1cccc(-c2nnc(SCc3ccc(Cl)cc3)n2C)c1 [drawing 84]
- IC50 [1]: 8.5 µM

SMILES: C#Cc1cncc(-c2nnc(SCc3ccc(Cl)cc3)n2C)c1 [drawing 87]
- IC50 [1]: 86 µM

SMILES: Cn1c(SCc2ccc(Cl)cc2)nnc1-c1cncc(C#Cc2ccccc2)c1 [drawing 88]
- IC50 [1]: 4 µM

SMILES: CCCCCCC#Cc1cncc(-c2nnc(SCc3ccc(Cl)cc3)n2C)c1 [drawing 92]
- IC50 [2, 12]: 1.5 ± 0.19 µM
- IC50 [10]: 0.85 ± 0.043 µM

SMILES: CCCCCCC#Cc1cncc(-c2nnc(SCc3ccc(C#N)cc3)n2C)c1 [drawing 93]
- IC50 [2, 12]: 5.3 ± 1.17 µM
- IC50 [10]: 2.3 ± 0.2 µM

SMILES: CCCCCCC#Cc1cncc(-c2nnc(SCc3ccc([N+](=O)[O-])cc3)n2C)c1 [drawing 94]
- IC50 [2, 12]: 2.9 ± 0.45 µM
- IC50 [10]: 1.3 ± 0.15 µM

SMILES: CCCCCCC#Cc1cncc(-c2nnc(SCc3cc([N+](=O)[O-])cc([N+](=O)[O-])c3)n2C)c1 [drawing 95]
- IC50 [2, 12]: 0.17 ± 0.016 µM
- IC50 [10]: 0.061 ± 0.012 µM

SMILES: CCCCCCC#Cc1cncc(-c2nnc(SCc3ccc(Cl)cc3)n2C)c1 [drawing 129]
- IC50 [2, 11]: 5.4 ± 0.5 µM
- CC50 at 72 hour [3]: 50 ± 5.5 µM
- selectivity index (SI) [4]: 9.3

SMILES: CCCCCCC#Cc1cncc(-c2nnc(SCc3ccc(C#N)cc3)n2C)c1 [drawing 130]
- IC50 [2, 11]: 27 ± 0.4 µM
- CC50 [4]: > 100 µM
- selectivity index (SI) [4]: >3.7

SMILES: CCCCCCC#Cc1cncc(-c2nnc(SCc3ccc([N+](=O)[O-])cc3)n2C)c1 [drawing 131]
- IC50 [2, 11]: 22 ± 13 µM
- CC50 at 72 hour [3]: 27 ± 5.4 µM
- selectivity index (SI) [4]: 1.3

SMILES: CCCCCCC#Cc1cncc(-c2nnc(SCc3cc([N+](=O)[O-])cc([N+](=O)[O-])c3)n2C)c1 [drawing 133]
- IC50 [2, 11]: 0.34 ± 0.01 µM
- CC50 [4]: > 100 µM
- selectivity index (SI) [4]: >294

SMILES: CCCCCCC#Cc1cncc(-c2nnc(SCc3ccc([N+](=O)[O-])o3)n2C)c1 [drawing 135]
- IC50 [2, 11]: 0.1 ± 0.01 µM
- CC50 at 72 hour [3]: 33 ± 2.9 µM
- selectivity index (SI) [4]: 314

SMILES: CCCCCCC#Cc1cncc(-c2nnc(SCc3ccc(Cl)cc3)n2C2CC2)c1 [drawing 136]
- IC50 [2, 11]: 5.1 ± 0.7 µM
- CC50 at 72 hour [3]: 25 ± 2.5 µM
- selectivity index (SI) [4]: 4.8

SMILES: CCCCCCC#Cc1cncc(-c2nnc(SCc3ccc([N+](=O)[O-])o3)n2C2CC2)c1 [drawing 137]
- IC50 [2, 11]: 0.05 ± 0.003 µM
- CC50 at 72 hour [3]: 7.8 ± 0.48 µM
- selectivity index (SI) [4]: 165

SMILES: Cn1c(SCc2ccc(Cl)cc2)nnc1-c1cncc(C#Cc2ccccc2)c1 [drawing 138]
- IC50 [2, 11]: 2.2 ± 0.4 µM
- CC50 [4]: > 100 µM
- selectivity index (SI) [4]: >46

SMILES: CCCCCCC#Cc1cncc(-c2nnc(SCc3ccc([N+](=O)[O-])o3)n2C)c1 [nitrofuran bearing analog]
- antimycobacterial activity (in words) ([1]; text b333-b334, MABA): most potent

SMILES: COC(=O)[C@H]1[C@H]2C[C@@H]3c4[nH]c5cc(OC)ccc5c4CCN3C[C@H]2C[C@@H](OC(=O)c2cc(OC)c(OC)c(OC)c2)[C@@H]1OC [reserpine, reference compound]
- PBS solubility (μM) [5]: 7.8^[d] μM
